As to `Cn1cc(C(=O)Nc2ccccc2-c2ccc(Br)cc2)c(C(F)F)c1` [Compound 1.2, 1-methyl-4-difluoromethyl-1H-pyrrole-3-carboxylic acid (4′-bromobiphenyl-2-yl) amide], the melting point lay within 166 to 167 °C.

The term melting point denotes the temperature, or range, at which the solid turns liquid.

(Values after patent US20040082477A1, “Pyrrolecarboxamides for the use as fungicdes” (priority 2001, published 2004).)
